We go through 1 compound from patent publication US20040116420A1 (priority 2001, published 2004).

The test system of assay [1] is HSV1 DNA polymerase variant. Put plainly: Antiviral activity 2, plaque formation in HEL cells. In kind it is cell-based, HSV-1. The note with it: Human alphaherpesvirus 1, HEL, 72 h, read-out: Antiviral activity: IC50, HSV1 DNA polymerase variant. Here is the method:
(§1) An Assay Method for Antiviral Activity 2
(§2) The HEL cells were sowed on a 48-well plate and then cultured overnight. The culture supernatant was removed, and 100 μl of 2% FBS-DMEM containing 40 Plaque-forming units of HSV-1, HSV-2, VZV, or CMV was added. A viral solution Was removed 1 hour later, and 500 μl of 2% FBS-DMEM containing 0.5% methylcellulose comprising 50, 25, 12.5, 6.3, 3.2, or 1.6 μM of the test compound was added. In this case, a substance to which 2% FBS-DMEM containing 0.5% methylcellulose not comprising any test compound had been added was designated as a control. In the case of HSV-1, HSV-2, or VZV, incubation was carried out in the presence of 5% CO2 at 37° C. for 3 days. In the case of CMV, incubation was carried out under the same conditions for 14 days. After they were immobilized on formalin and stained with bromophenol blue, the amount of plaque formed was counted, and the ratio of plaque formation of the drug-containing reaction system relative to the control was determined. The concentration of the drug with which the ratio of plaque formation reaches 50% was calculated and determined to be IC50. Concerning HSV-1, an aciclovir-resistant thymidine kinase variant and a DNA polymerase variant were examined in addition to a general aciclovir-sensitive strain.

Assay [2] relates to HSV1 Thimidine kinase variant. Described as above. Type of assay: cell-based, HSV-1. The note with it: Human alphaherpesvirus 1, HEL, 72 h, read-out: Antiviral activity: IC50, HSV1 Thimidine kinase variant. Here is the method: as §1, §2
The test system of the next assay is HSV1 Sensitive strain. Described as above. Type of assay: cell-based, HSV-1. The note with it: Human alphaherpesvirus 1, 72 h, 3 days. As to the method: as §1, §2
Another assay concerns the target T1, HSV-1 protease (Human herpesvirus 1, UniProt P10210).
T1 construct: 6xHis (N); made in house; host or cells: baculovirus expression system
In words: Enzymatic assay for HSV-1 protease (assembly) inhibitor, fluorescence polarization. In kind it is biochemical. The settings on record: read-out: HSV-1 Enzyme inhibition IC50. An outline of the steps: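 Fluorescence polarization read-out: after avidin stop, cleavage of a biotinylated DTAF-labelled release-site peptide by recombinant N-His6 HSV-1 protease was compared with no-inhibitor wells. Enzyme and compound were preincubated 30 min, then substrate reacted 60 min, all at room temperature, pH 7.4 citrate buffer with TCEP.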

For another assay, the system named is HCMV. In words: Antiviral activity 2, plaque formation in HEL cells. Type of assay: cell-based, CMV. The note with it: Human betaherpesvirus 5, 336 h, 14 days. Here is the method:
as §1, §2

The next assay has as its system HSV-1. Put plainly: Antiviral activity, HSV-1 in Vero cells, plaque method. Type of assay: cell-based. The settings on record: Human alphaherpesvirus 1, 20 hours, 90% inhibition of plaque formation. The method in brief:
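This is a virus-yield read-out. The culture medium was frozen at −80° C and thawed, and the plaques it formed were counted. It came from Vero monolayers infected with 50,000 pfu HSV-1 and then exposed to the compound for 20 h at 37° C. EC90 is the concentration inhibiting 90% of plaque formation relative to the untreated infected control.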

T1 sequence (P10210 1-247): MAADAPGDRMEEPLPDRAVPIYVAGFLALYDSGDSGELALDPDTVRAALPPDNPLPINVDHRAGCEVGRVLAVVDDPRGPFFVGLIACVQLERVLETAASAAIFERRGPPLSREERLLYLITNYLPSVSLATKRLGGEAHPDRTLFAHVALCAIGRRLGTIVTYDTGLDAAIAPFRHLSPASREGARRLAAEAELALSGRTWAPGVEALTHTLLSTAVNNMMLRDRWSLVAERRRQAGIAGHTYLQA

One may read the IC50 as the midpoint of a concentration-inhibition curve. One may read the EC90 as the concentration needed for an effect of 90%. For `Cc1c(NC(=O)OC(C)(C)C)ccc2nc(NC(C)(C)C(=O)N(C)CCc3ccccn3)oc(=O)c12` [Compound No.18, (5-methyl-2-{1-methyl-1-[methyl-(2-pyridin-2-yl-ethyl)-carbamoyl]-ethylamino}-4-oxo-4H-benzo[d][1,3]oxazin-6-yl)-carbamic Acid Tert-Butyl Ester], the IC50 in assay [1] amounted to 17.1 µM; in assay [2], 22.5 µM; in the assay on HSV1 Sensitive strain, 10 µM; on HSV-1 protease, 0.4 µM; in the assay with HCMV, 11.1 µM. Besides, in the assay on HSV-1, the EC90 is 8.4 µM.
